In brackets after ≈: the same amount, converted by molar mass. Where a SMILES comes first, the peptide text is derived from it. [ ]: non-standard residue; d: D form.
What was measured:
E. coli [1] = experiment: microbe, parasite or virus in culture; assay type: cell-based, Escherichia coli; details: 16 h
How it was run: (§1)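 Peptides were serially diluted twofold in Mueller-Hinton medium and combined 1:1 with bacterial suspensions prepared at 2×10^6 CFU. Readout was the minimal inhibitory concentration, i.e. the lowest concentration with no growth.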

MDREC 1229 [2] = experiment: microbe, parasite or virus in culture; assay type: cell-based, Escherichia coli; details: MDREC 1229
How it was run: as §1

MDRPA 2002 = assay type: cell-based, Pseudomonas aeruginosa; details: MDRPA 2002; agent alone
How it was run: as §1

A. baumannii [3] = experiment: microbe, parasite or virus in culture; assay type: cell-based, Acinetobacter baumannii
How it was run: as §1

MDRAB 12035 [4] = experiment: microbe, parasite or virus in culture; assay type: cell-based, Acinetobacter baumannii; details: MDRAB 12035
How it was run: as §1

S. typhimurium = experiment: microbe, parasite or virus in culture; assay type: cell-based, Salmonella typhimurium
How it was run: as §1

MDRST 8007 = experiment: Minimal inhibitory concentration (MIC), single agent; assay type: cell-based, Salmonella typhimurium; details: agent alone
How it was run: as §1

B. subtilis = experiment: microbe, parasite or virus in culture; assay type: cell-based, Bacillus subtilis
How it was run: as §1

S. aureus = experiment: microbe, parasite or virus in culture; assay type: cell-based, Staphylococcus aureus
How it was run: as §1

MRSA 3114 = assay type: cell-based, Staphylococcus aureus; details: MRSA 3114; agent alone
How it was run: as §1

MRSA 3126 = assay type: cell-based, Staphylococcus aureus; details: MRSA 3126; agent alone
How it was run: as §1

E. coli [5] = experiment: MIC of antibiotic during combined treatment with antimicrobial peptide; assay type: cell-based, Escherichia coli; details: for Antibiotic MIC, Erythromycin / Antibiotic MIC, Linezolid / Antibiotic MIC, Vancomycin: E. coli
How it was run: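 MIC values for mixed peptide plus antibiotic solutions were measured in MH medium.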

E. coli [6] = assay type: cell-based, Escherichia coli
Protocol: (§2) A synergistic effect of a peptide and antibiotics was evaluated at antibacterial activity against a strain by using an MIC value determined for each mixed solution. For the evaluation, a fractional inhibitory concentration (FIC) value was used (Elion, Gertrude B., Samuel Singer, and George H. Hitchings. Journal of Biological Chemistry 208.2 (1954): 477-488.).
(§3) A method generally used to decide the synergistic effect by using the FIC values is a checkerboard assay, and is a method that selects the lowest FIC index value in a well in which the growth of bacteria is suppressed. However, the selection of one FIC index in the method has a problem in that when the antibacterial activity of the antibiotics is lower, the FIC index is calculated so as to have a big synergistic effect, and is not accurate and has many experimental errors. Thus, with respect to the FIC index calculated by [Equation 1], an average FIC index was again calculated by using the following [Equation 2] (He, Jing, Charles G. Starr, and William C. Wimley. Biochimica et Biophysica Acta (BBA)-Biomembranes 1848.1 (2015): 8-15.).

MDREC 1229 [7] = assay type: cell-based, Escherichia coli
Protocol: as §2, §3

A. baumannii [8] = assay type: cell-based, Acinetobacter baumannii
Protocol: as §2, §3

MDRAB 12035 [9] = assay type: cell-based, Acinetobacter baumannii
Protocol: as §2, §3

[10] = tested on: multi-drug resistant bacteria; experiment: MIC, summary statements for multi-drug resistant bacteria; assay type: cell-based
How it was run: as §1

[11] = peptide combined with erythromycin
[12] = peptide combined with linezolid
[13] = peptide combined with vancomycin

CC[C@H](C)[C@H](NC(=O)[C@H](CCCCN)NC(=O)[C@H](Cc1c[nH]c2ccccc12)NC(=O)[C@@H](N)CCCNC(=N)N)C(=O)N[C@@H](Cc1ccccc1)C(=O)N[C@@H](CCCCN)C(=O)N[C@@H](CCCCN)C(=O)N[C@H](C(=O)N[C@H](CC(C)C)C(=O)N[C@@H](CCCCN)C(=O)N[C@@H](CC(C)C)C(=O)N[C@@H](CC(C)C)C(=O)N[C@@H](Cc1c[nH]cn1)C(=O)N[C@@H](CCCCN)C(=O)N[C@@H](Cc1ccccc1)C(=O)N[C@@H](CCCCN)C(=O)N[C@@H](CCCCN)C(=O)N[C@@H](Cc1ccccc1)C(N)=O)[C@@H](C)CC [PapMA-21, RWK IFK KIl KLL HKF KKF-NH2] (H-RWKIFKKI[dL]KLLHKFKKF-NH2; N-terminus assumed)
Minimal inhibitory concentration MIC (E. coli [1]): 32 µg/mL (≈ 13.3 µM)
Minimal inhibitory concentration MIC (MDREC 1229 [2]; agent alone): 32 µg/mL (≈ 13.3 µM)
Peptide MIC, peptide alone (MDREC 1229 [2]; peptide alone, no antibiotic): 32 µg/mL
Minimal inhibitory concentration MIC (MDRPA 2002): 32 µg/mL (≈ 13.3 µM)
Minimal inhibitory concentration MIC (A. baumannii [3]): 32 µg/mL (≈ 13.3 µM)
Peptide MIC, peptide alone (A. baumannii [3]): 32 µg/mL
Antibacterial activity relative to PapMA-1 (A. baumannii [3]; A. baumannii and S. typhimurium): at least twice as high
Minimal inhibitory concentration MIC (MDRAB 12035 [4]; agent alone): 32 µg/mL (≈ 13.3 µM)
Peptide MIC, peptide alone (MDRAB 12035 [4]; no antibiotic): 32 µg/mL
Minimal inhibitory concentration MIC (S. typhimurium): 32 µg/mL (≈ 13.3 µM)
Minimal inhibitory concentration MIC (MDRST 8007): 64 µg/mL (≈ 26.7 µM)
Minimal inhibitory concentration MIC (B. subtilis): >128 µg/mL
Minimal inhibitory concentration MIC (S. aureus): >128 µg/mL
Minimal inhibitory concentration MIC (MRSA 3114): >128 µg/mL
Minimal inhibitory concentration MIC (MRSA 3126): >128 µg/mL
Synergistic effect of antibacterial activity with existing antibiotics compared with PapMA-1 (E. coli [5]; E. coli and MDREC1229): level similar to that of the PapMA-1 peptide
Antibiotic MIC, Erythromycin (E. coli [5]; erythromycin combined with peptide at 1 μg/ml): 64 µg/mL
Antibiotic MIC, Erythromycin (E. coli [5]; erythromycin combined with peptide at 2 μg/ml): 32 µg/mL
Antibiotic MIC, Erythromycin (E. coli [5]; erythromycin combined with peptide at 4 μg/ml): 8 µg/mL
Antibiotic MIC, Erythromycin (E. coli [5]; erythromycin combined with peptide at 6 μg/ml): 2 µg/mL
Antibiotic MIC, Erythromycin (E. coli [5]; erythromycin combined with peptide at 8 μg/ml): 1 µg/mL
Antibiotic MIC, Erythromycin (E. coli [5]; erythromycin combined with peptide at 16 μg/ml): 0.25 µg/mL
Antibiotic MIC, Erythromycin (E. coli [5]; erythromycin combined with peptide at 32 μg/ml): 0 µg/mL
Antibiotic MIC, Erythromycin (E. coli [5]; erythromycin combined with peptide at 64 μg/ml): 0 µg/mL
Antibiotic MIC, Linezolid (E. coli [5]; linezolid combined with peptide at 1 μg/ml): >128 µg/mL
Antibiotic MIC, Linezolid (E. coli [5]; linezolid combined with peptide at 2 μg/ml): 128 µg/mL
Antibiotic MIC, Linezolid (E. coli [5]; linezolid combined with peptide at 4 μg/ml): 64 µg/mL
Antibiotic MIC, Linezolid (E. coli [5]; linezolid combined with peptide at 6 μg/ml): 32 µg/mL
Antibiotic MIC, Linezolid (E. coli [5]; linezolid combined with peptide at 8 μg/ml): 16 µg/mL
Antibiotic MIC, Linezolid (E. coli [5]; linezolid combined with peptide at 16 μg/ml): 8 µg/mL
Antibiotic MIC, Linezolid (E. coli [5]; linezolid combined with peptide at 32 μg/ml): 0 µg/mL
Antibiotic MIC, Linezolid (E. coli [5]; linezolid combined with peptide at 64 μg/ml): 0 µg/mL
Antibiotic MIC, Vancomycin (E. coli [5]; vancomycin combined with peptide at 1 μg/ml): >128 µg/mL
Antibiotic MIC, Vancomycin (E. coli [5]; vancomycin combined with peptide at 2 μg/ml): >128 µg/mL
Antibiotic MIC, Vancomycin (E. coli [5]; vancomycin combined with peptide at 4 μg/ml): >128 µg/mL
Antibiotic MIC, Vancomycin (E. coli [5]; vancomycin combined with peptide at 6 μg/ml): 64 µg/mL
Antibiotic MIC, Vancomycin (E. coli [5]; vancomycin combined with peptide at 8 μg/ml): 32 µg/mL
Antibiotic MIC, Vancomycin (E. coli [5]; vancomycin combined with peptide at 16 μg/ml): 8 µg/mL
Antibiotic MIC, Vancomycin (E. coli [5]; vancomycin combined with peptide at 32 μg/ml): 0 µg/mL
Antibiotic MIC, Vancomycin (E. coli [5]; vancomycin combined with peptide at 64 μg/ml): 0 µg/mL
Average FIC index, Erythromycin (E. coli [6]; [11]): 0.15
Average FIC index, Linezolid (E. coli [6]; [12]): 0.35
Average FIC index, Vancomycin (E. coli [6]; [13]): 0.21
Average FIC index, Erythromycin (MDREC 1229 [7]; [11]): 0.15
Average FIC index, Linezolid (MDREC 1229 [7]; [12]): 0.28
Average FIC index, Vancomycin (MDREC 1229 [7]; [13]): 0.26
Average FIC index, Erythromycin (A. baumannii [8]; [11]): 0.40
Average FIC index, Linezolid (A. baumannii [8]; [12]): 0.35
Average FIC index, Vancomycin (A. baumannii [8]; [13]): 0.11
Average FIC index, Erythromycin (MDRAB 12035 [9]; [11]): 0.49
Average FIC index, Linezolid (MDRAB 12035 [9]; [12]): 0.22
Average FIC index, Vancomycin (MDRAB 12035 [9]; [13]): 0.17
Antibacterial activity relative to PapMA-1 [10]: twice to four times higher

— patent US11214594B2, “Antimicrobial peptide having synergistic antibacterial effect with antibiotics on multidrug resistant bacteria, and use thereof” (priority 2016, dated 2022)
